Test results taken from patent publication US12570671B2 (BRISTOL-MYERS SQUIBB COMPANY, priority 2020, dated 2026).

Columns and labels:
Helios = Helios (Homo sapiens, UniProt Q96SW2+Q9UKS7); assay: Helios Cellular Degradation Assay (Helios readout); assay type: cell-based; design: endogenous in cells; host or cells: Jurkat; details: Jurkat cells, 72 h incubation, Helios-PE antibody staining, flow cytometry; read-out: Helios Jurkat IC50
Procedure: (§1) Jurkat cells were plated at 80,000 cells/well in 40 μL RPMI+10% FBS in a 384 well cell culture plate prior to using acoustic dispensing technology for adding compound of interest. Cell cultures were incubated for 72 h at 37° C. and 5% C02. In order to facilitate analysis, cell cultures were spun down at 200 rpm for 5 min and the supernatant was discarded. After shaking the plate to dislodge the cell pellet, cells were resuspended in 50 μL of Fixation Buffer (eBioScience FoxP3 buffer set 00-5523-00) for 60 min at room temperature. After centrifuging and discarding the supernatant, cells were permeabilized with 50 μL of Permeabilization buffer (eBioScience FoxP3 buffer set 00-5523-00) for 10 min at room temperature. Following permeabilization, cells were spun down and the supernatant was replaced with 20 μL fluorescently labelled antibodies against Helios, Ikaros and Aiolos or corresponding Isotype controls in 1× Permeabilization buffer (Ikaros-Alexa488 [Biolegend, Cat #368408, 1:50], Helios-PE [CST, Cat #29360, 1:50], Aiolos-Alexa647 [Biolegend, Cat #371106Biolegend, 1:25]) and staining reactions were incubated for 1 h at room temperature; protected from light. Subsequently, 30 μL of 1× Permeabilization buffer was added prior to centrifuging the cells and discarding the supernatant. Stained cells were resuspended in 25 μL of flow cytometry staining buffer (PBS+0.2% BSA) and analyzed using an Intellicyt Ique Plus flow cytometer.

Ikaros = Ikaros (Homo sapiens, UniProt Q13422+Q96SW2); assay: Helios Cellular Degradation Assay (Ikaros readout); assay type: cell-based; design: endogenous in cells; host or cells: Jurkat; details: Jurkat cells, 72 h incubation, Ikaros-Alexa488 antibody staining, flow cytometry; read-out: Ikaros Jurkat IC50
Sequence of Ikaros (Q13422 whole entry): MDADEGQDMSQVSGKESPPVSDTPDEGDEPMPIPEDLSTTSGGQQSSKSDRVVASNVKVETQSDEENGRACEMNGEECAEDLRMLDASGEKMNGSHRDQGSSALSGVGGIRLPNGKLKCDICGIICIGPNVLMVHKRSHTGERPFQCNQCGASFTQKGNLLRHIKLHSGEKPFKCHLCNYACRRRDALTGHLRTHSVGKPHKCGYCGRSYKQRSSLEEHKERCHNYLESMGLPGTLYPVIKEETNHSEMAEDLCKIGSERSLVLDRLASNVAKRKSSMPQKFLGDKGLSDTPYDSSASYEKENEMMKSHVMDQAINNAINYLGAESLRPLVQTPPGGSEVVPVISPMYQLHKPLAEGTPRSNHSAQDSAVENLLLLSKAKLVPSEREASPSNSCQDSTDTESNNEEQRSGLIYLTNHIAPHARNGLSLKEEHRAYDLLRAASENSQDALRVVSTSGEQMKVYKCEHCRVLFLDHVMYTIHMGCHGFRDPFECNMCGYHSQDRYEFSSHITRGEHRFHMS
Sequence of Ikaros (Q96SW2 whole entry): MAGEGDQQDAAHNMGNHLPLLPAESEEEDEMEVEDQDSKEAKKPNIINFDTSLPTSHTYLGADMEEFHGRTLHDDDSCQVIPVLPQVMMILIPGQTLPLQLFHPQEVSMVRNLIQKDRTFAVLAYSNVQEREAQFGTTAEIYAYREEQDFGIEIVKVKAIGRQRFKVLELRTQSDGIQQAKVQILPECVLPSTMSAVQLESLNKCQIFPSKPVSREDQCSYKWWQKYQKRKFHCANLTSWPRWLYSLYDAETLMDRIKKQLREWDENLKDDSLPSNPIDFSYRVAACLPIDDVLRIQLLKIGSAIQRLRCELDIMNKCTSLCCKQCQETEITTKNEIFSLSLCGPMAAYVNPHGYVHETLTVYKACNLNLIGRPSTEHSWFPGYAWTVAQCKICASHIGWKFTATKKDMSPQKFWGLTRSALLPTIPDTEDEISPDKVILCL
Sequence of Ikaros (Q16531 whole entry partner): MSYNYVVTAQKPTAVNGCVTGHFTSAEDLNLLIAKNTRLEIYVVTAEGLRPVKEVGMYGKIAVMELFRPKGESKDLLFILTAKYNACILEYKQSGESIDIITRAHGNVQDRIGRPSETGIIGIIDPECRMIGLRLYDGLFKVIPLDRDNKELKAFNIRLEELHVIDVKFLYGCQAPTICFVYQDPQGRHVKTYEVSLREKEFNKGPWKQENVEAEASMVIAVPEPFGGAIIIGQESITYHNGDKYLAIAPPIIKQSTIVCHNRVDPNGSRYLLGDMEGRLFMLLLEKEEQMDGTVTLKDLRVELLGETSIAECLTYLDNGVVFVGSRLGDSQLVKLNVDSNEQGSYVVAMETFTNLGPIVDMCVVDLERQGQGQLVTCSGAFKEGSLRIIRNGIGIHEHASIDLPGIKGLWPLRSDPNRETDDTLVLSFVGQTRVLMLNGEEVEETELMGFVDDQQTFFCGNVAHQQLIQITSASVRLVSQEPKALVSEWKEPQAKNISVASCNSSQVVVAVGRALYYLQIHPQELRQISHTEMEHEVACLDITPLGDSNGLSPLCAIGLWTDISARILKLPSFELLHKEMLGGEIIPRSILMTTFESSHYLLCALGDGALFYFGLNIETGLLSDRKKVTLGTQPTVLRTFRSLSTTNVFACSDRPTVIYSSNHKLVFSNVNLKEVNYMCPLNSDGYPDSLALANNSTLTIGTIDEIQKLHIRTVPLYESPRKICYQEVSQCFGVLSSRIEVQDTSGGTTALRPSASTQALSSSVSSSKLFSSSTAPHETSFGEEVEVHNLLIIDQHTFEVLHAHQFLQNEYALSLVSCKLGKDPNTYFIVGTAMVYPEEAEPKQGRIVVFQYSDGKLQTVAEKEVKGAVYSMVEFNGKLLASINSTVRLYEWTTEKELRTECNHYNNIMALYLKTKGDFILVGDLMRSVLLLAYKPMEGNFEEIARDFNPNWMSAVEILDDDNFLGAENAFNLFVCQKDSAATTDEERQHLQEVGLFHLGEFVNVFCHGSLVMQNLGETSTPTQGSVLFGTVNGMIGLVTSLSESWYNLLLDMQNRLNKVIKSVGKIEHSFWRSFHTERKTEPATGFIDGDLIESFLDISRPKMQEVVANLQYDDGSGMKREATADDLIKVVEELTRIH
Procedure: as §1

Sequence of Helios (Q9UKS7 whole entry): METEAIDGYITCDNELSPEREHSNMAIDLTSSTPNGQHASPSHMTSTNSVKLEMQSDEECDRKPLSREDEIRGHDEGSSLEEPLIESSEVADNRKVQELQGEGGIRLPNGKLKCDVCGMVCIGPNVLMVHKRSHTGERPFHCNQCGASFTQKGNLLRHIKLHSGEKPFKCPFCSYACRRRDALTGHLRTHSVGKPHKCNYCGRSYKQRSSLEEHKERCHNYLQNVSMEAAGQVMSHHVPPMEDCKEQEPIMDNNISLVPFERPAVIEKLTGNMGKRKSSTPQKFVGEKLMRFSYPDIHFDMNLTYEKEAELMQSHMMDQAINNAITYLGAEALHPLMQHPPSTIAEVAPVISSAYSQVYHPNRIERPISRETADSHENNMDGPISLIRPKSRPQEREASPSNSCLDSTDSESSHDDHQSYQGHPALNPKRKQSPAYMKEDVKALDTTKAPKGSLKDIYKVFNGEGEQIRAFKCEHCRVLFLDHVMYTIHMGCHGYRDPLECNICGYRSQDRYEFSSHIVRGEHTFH
Sequence of Helios (Q96SW2 whole entry): as the sequence (Q96SW2 whole entry) above
Sequence of Helios (Q16531 whole entry partner): as the sequence (Q16531 whole entry partner) above

Row | SMILES | DC50 (Helios) [nM] | DC50 (Ikaros) [nM]
1 | O=C1CCC(N2Cc3cc(-c4nccc5c(F)cccc45)ccc3C2=O)C(=O)N1 (stereo not shown) [Example 20, 3-[5-(5-fluoroisoquinolin-1-yl)-1-oxo-2,3-dihydro-1H-isoindol-2-yl]piperidine-2,6-dione] | 20 | 34
2 | O=C1CCC(N2Cc3cc(-c4ccc5ncccc5n4)ccc3C2=O)C(=O)N1 (stereo not shown) [Example 21, 3-[5-(1,5-naphthyridin-2-yl)-1-oxo-2,3-dihydro-1H-isoindol-2-yl]piperidine-2,6-dione] | 37 | > 20000
3 | Nc1nc(-c2ccc3c(c2)CN(C2CCC(=O)NC2=O)C3=O)nc2ccccc12 (stereo not shown) [Example 22, 3-[5-(4-aminoquinazolin-2-yl)-1-oxo-2,3-dihydro-1H-isoindol-2-yl]piperidine-2,6-dione] | 8 | > 20000
4 | Cc1cc(-c2ccc3c(c2)CN(C2CCC(=O)NC2=O)C3=O)nc2ccccc12 (stereo not shown) [Example 24, 3-[5-(4-methylquinolin-2-yl)-1-oxo-2,3-dihydro-1H-isoindol-2-yl]piperidine-2,6-dione] | 9 | > 20000
5 | O=C1CCC(N2Cc3cc(-c4cnc5cc(F)ccc5n4)ccc3C2=O)C(=O)N1 (stereo not shown) [Example 26, 3-[5-(6-fluoroquinoxalin-2-yl)-1-oxo-2,3-dihydro-1H-isoindol-2-yl]piperidine-2,6-dione] | 98 | > 20000
6 | O=C1CCC(N2Cc3cc(-c4ccc5cc(Cl)ccc5n4)ccc3C2=O)C(=O)N1 (stereo not shown) [Example 27, 3-[5-(6-chloroquinolin-2-yl)-1-oxo-2,3-dihydro-1H-isoindol-2-yl]piperidine-2,6-dione] | 25 | > 20000
7 | O=C1CCC(N2Cc3cc(-c4ccc5ccc(Cl)cc5n4)ccc3C2=O)C(=O)N1 (stereo not shown) [Example 28, 3-[5-(7-chloroquinolin-2-yl)-1-oxo-2,3-dihydro-1H-isoindol-2-yl]piperidine-2,6-dione] | 57 | > 20000
8 | COc1ccc2nc(-c3ccc4c(c3)CN(C3CCC(=O)NC3=O)C4=O)ccc2c1 (stereo not shown) [Example 29, 3-[5-(6-methoxyquinolin-2-yl)-1-oxo-2,3-dihydro-1H-isoindol-2-yl]piperidine-2,6-dione] | 25 | > 20000
9 | COC(=O)c1ccc2nc(-c3ccc4c(c3)CN(C3CCC(=O)NC3=O)C4=O)ccc2c1 (stereo not shown) [Example 31, methyl 2-[2-(2,6-dioxopiperidin-3-yl)-1-oxo-2,3-dihydro-1H-isoindol-5-yl]quinoline-6-carboxylate] | > 20000 | > 20000
10 | Cc1cc2ccccc2nc1-c1ccc2c(c1)CN(C1CCC(=O)NC1=O)C2=O (stereo not shown) [Example 32, 3-[5-(3-methylquinolin-2-yl)-1-oxo-2,3-dihydro-1H-isoindol-2-yl]piperidine-2,6-dione] | 480 | > 20000
11 | COc1cccc2ccc(-c3ccc4c(c3)CN(C3CCC(=O)NC3=O)C4=O)nc12 (stereo not shown) [Example 33, 3-[5-(8-methoxyquinolin-2-yl)-1-oxo-2,3-dihydro-1H-isoindol-2-yl]piperidine-2,6-dione] | 120 | > 20000
12 | O=C1CCC(N2Cc3cc(-c4ncc5cc(F)ccc5n4)ccc3C2=O)C(=O)N1 (stereo not shown) [Example 35, 3-[5-(6-fluoroquinazolin-2-yl)-1-oxo-2,3-dihydro-1H-isoindol-2-yl]piperidine-2,6-dione] | 53 | > 20000
13 | O=C1CCC(N2Cc3cc(-c4cc(O)c5ccccc5n4)ccc3C2=O)C(=O)N1 (stereo not shown) [Example 37, 3-[5-(4-hydroxyquinolin-2-yl)-1-oxo-2,3-dihydro-1H-isoindol-2-yl]piperidine-2,6-dione] | 2400 | > 20000
14 | Cc1ccc2nc(-c3ccc4c(c3)CN(C3CCC(=O)NC3=O)C4=O)ccc2c1 (stereo not shown) [Example 39, 3-[5-(6-methylquinolin-2-yl)-1-oxo-2,3-dihydro-1H-isoindol-2-yl]piperidine-2,6-dione] | 25 | > 20000
15 | Nc1nc(-c2ccc3c(c2)CN(C2CCC(=O)NC2=O)C3=O)nc2nc[nH]c12 (stereo not shown) [Example 44, 3-[5-(6-amino-7H-purin-2-yl)-1-oxo-2,3-dihydro-1H-isoindol-2-yl]piperidine-2,6-dione] | 98 | > 20000
16 | CCn1ncc2c(-c3ccc4c(c3)CN(C3CCC(=O)NC3=O)C4=O)nc(N)nc21 (stereo not shown) [Example 45, 3-(5-{6-amino-1-ethyl-1H-pyrazolo[3,4-d]pyrimidin-4-yl}-1-oxo-2,3-dihydro-1H-isoindol-2-yl)piperidine-2,6-dione] | 430 | > 20000

Second part, the molecule after the results:

Row | DC50 (Helios) [nM] | DC50 (Ikaros) [nM] | SMILES
17 | 6 | 130 | Cc1ccc2c(-c3ccc4c(c3)CN(C3CCC(=O)NC3=O)C4=O)nccc2c1 (stereo not shown) [Example 23, 3-[5-(6-methylisoquinolin-1-yl)-1-oxo-2,3-dihydro-1H-isoindol-2-yl]piperidine-2,6-dione]
18 | 48 | 8400 | Nc1cc2ccccc2c(-c2ccc3c(c2)CN(C2CCC(=O)NC2=O)C3=O)n1 (stereo not shown) [Example 25, 3-[5-(3-aminoisoquinolin-1-yl)-1-oxo-2,3-dihydro-1H-isoindol-2-yl]piperidine-2,6-dione]
19 | > 20000 | > 20000 | CCOC(=O)c1nc2ccccc2nc1-c1ccc2c(c1)CN(C1CCC(=O)NC1=O)C2=O (stereo not shown) [Example 30, ethyl 3-[2-(2,6-dioxopiperidin-3-yl)-1-oxo-2,3-dihydro-1H-isoindol-5-yl]quinoxaline-2-carboxylate]
20 | 70 | > 20000 | O=C1CCC(N2Cc3cc(-c4ccc5cccc(Cl)c5n4)ccc3C2=O)C(=O)N1 (stereo not shown) [Example 34, 3-[5-(8-chloroquinolin-2-yl)-1-oxo-2,3-dihydro-1H-isoindol-2-yl]piperidine-2,6-dione]
21 | 110 | > 20000 | O=C1CCC(N2Cc3cc(-c4nc5ccccc5cc4Cl)ccc3C2=O)C(=O)N1 (stereo not shown) [Example 36, 3-[5-(3-chloroquinolin-2-yl)-1-oxo-2,3-dihydro-1H-isoindol-2-yl]piperidine-2,6-dione]
22 | 22 | > 20000 | O=C1CCC(N2Cc3cc(-c4ccc5cc(F)ccc5n4)ccc3C2=O)C(=O)N1 (stereo not shown) [Example 38, 3-[5-(6-fluoroquinolin-2-yl)-1-oxo-2,3-dihydro-1H-isoindol-2-yl]piperidine-2,6-dione]
23 | 19 | > 20000 | O=C1CCC(N2Cc3cc(-c4ccc5cc(O)ccc5n4)ccc3C2=O)C(=O)N1 (stereo not shown) [Example 40, 3-[5-(6-hydroxyquinolin-2-yl)-1-oxo-2,3-dihydro-1H-isoindol-2-yl]piperidine-2,6-dione]
24 | > 20000 | > 20000 | COC(=O)c1ccc2cnc(-c3ccc4c(c3)CN(C3CCC(=O)NC3=O)C4=O)nc2c1 (stereo not shown) [Example 41, methyl 2-[2-(2,6-dioxopiperidin-3-yl)-1-oxo-2,3-dihydro-1H-isoindol-5-yl]quinazoline-7-carboxylate]
25 | 110 | 3600 | C[Si](C)(C)CCn1nnc2c(-c3ccc4c(c3)CN(C3CCC(=O)NC3=O)C4=O)nc(N)nc21 (stereo not shown) [Example 42, 3-(5-{5-amino-3-[2-(trimethylsilyl)ethyl]-3H-[1,2,3]triazolo[4,5-d]pyrimidin-7-yl}-1-oxo-2,3-dihydro-1H-isoindol-2-yl)piperidine-2,6-dione]
26 | > 20000 | > 20000 | Nc1nc(-c2ccc3c(c2)CN(C2CCC(=O)NC2=O)C3=O)c2nc[nH]c2n1 (stereo not shown) [Example 43, 3-[5-(2-amino-9H-purin-6-yl)-1-oxo-2,3-dihydro-1H-isoindol-2-yl]piperidine-2,6-dione]
